# Source: PMC2195641 (The Journal of Experimental Medicine, 1999)
# Where a SMILES comes first, the peptide text is derived from it.
# Target: T1, purified I-E^k molecules (Mus musculus, UniProt P04224+P04231)
# T1 sequence (P04224 26-255): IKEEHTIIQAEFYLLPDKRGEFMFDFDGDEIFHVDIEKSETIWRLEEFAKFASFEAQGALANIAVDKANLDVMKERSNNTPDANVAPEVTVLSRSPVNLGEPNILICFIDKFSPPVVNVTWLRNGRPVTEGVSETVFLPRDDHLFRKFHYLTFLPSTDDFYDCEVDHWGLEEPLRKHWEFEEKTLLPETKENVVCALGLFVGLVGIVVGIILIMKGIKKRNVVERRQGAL
# T1 sequence (P04231 1-232): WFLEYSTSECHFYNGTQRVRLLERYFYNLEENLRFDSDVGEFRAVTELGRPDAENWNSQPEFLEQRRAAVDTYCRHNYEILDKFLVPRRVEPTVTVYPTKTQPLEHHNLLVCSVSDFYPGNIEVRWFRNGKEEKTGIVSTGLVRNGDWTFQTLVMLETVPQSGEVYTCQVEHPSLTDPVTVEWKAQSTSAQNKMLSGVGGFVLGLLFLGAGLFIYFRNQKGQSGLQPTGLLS
# Assay: I-E^k binding assay
smiles,measurement,value
CC[C@H](C)[C@H](NC(=O)[C@H](C)NC(=O)[C@H](C)NC(=O)[C@H](C)NC(=O)[C@H](C)NC(=O)[C@H](C)NC(=O)[C@H](C)NC(=O)[C@H](C)N)C(=O)N[C@@H](C)C(=O)N[C@@H](Cc1ccc(O)cc1)C(=O)N[C@@H](C)C(=O)N[C@@H](CCCCN)C(=O)N[C@@H](CCC(N)=O)C(=O)N[C@@H](C)C(=O)N[C@H](C(=O)N[C@@H](CCCCN)C(=O)O)[C@@H](C)O [pMCC-A] (H-AAAAAAAIAYAKQATK-OH),IC50,0.036 µM
